The record followed here is patent US20260347319A1, “YAP/TAZ-TEAD ONCOPROTEINS INHIBITORS” (BridGene Biosciences, Inc., priority 2022, published 2026).

The assay has as its system TEAD1. Put plainly: MCF-7 TEAD1-luciferase reporter assay (MCF7-TEAD-Luc). In kind it is cell-based. To be noted: MCF7 cells, overnight; for IC50: Homo sapiens; for TEAD1-Luc MCF7: Max Inhibition: % of DMSO-treated control. The method, then:
The ability of compounds to inhibit TEAD-dependent transcription was assessed in the MCF7-TEAD-Luc reporter assay (BPS #60618). Cells were seeded at 10,000 cells in 200 μL per well into white wall, clear bottom 96-well plates (Corning #3610) and incubated at 37° C. for 24 hours, then treated with serial diluted compounds overnight, and luciferase signal was measured using the ONE-Step Luciferase Assay System (BPS #60690) using an EnSight Multimode plate reader (PerkinElmer, model #MLDHH34000000, integration time 100 ms) with Kaleido 3.0. software. For data analysis, dose-dependent curves were plotted as “% inhibition” (% of DMSO-treated control wells), and were fitted by four-parametric model in GraphPad Prism to obtain IC50 values.
Background: A reporter such as luciferase makes a cellular process visible.

One may read the IC50 as the concentration that inhibits the measured activity by half. A higher IC50 goes with a need for much substance. With `C=CC(=O)N1CC[C@](O)(/C=C/c2ccc(C(F)(F)F)cc2)C1` (single isomer, unassigned) [Example 27, (S*,E)-1-(3-hydroxy-3-(4-(trifluoromethyl)styryl)pyrrolidin-1-yl)prop-2-en-1-one], the half-maximal inhibitory concentration (IC50) lay in the range of 100 to 500 nM and the “TEAD1-Luc MCF7: Max Inhibition” value is “A (A ≥ 75%)”.

Turning to `C=CC(=O)N1CC[C@@](O)(/C=C/c2ccc(C(F)(F)F)cc2)C1` (single isomer, unassigned) [Example 28, (R*,E)-1-(3-hydroxy-3-(4-(trifluoromethyl)styryl)pyrrolidin-1-yl)prop-2-en-1-one], the IC50 fell in the range of 10 to 100 nM and the “TEAD1-Luc MCF7: Max Inhibition” value is “B (75% > B ≥ 50%)”.

In the case of `C=CC(=O)N1CC[C@@](C)(/C=C/c2ccc(C(F)(F)F)cc2)C1` (single isomer, unassigned) [Example 29, 1-[(3S*)-3-methyl-3-{2-[4-(trifluoromethyl)phenyl]ethenyl}pyrrolidin-1-yl]prop-2-en-1-one], the IC50 fell in the range of 10 to 100 nM and the “TEAD1-Luc MCF7: Max Inhibition” value is reported as “A (A ≥ 75%)”.

Turning to `C=CC(=O)N1CC[C@](C)(/C=C/c2ccc(C(F)(F)F)cc2)C1` (single isomer, unassigned) [Example 30, 1-[(3R*)-3-methyl-3-{2-[4-(trifluoromethyl)phenyl]ethenyl}pyrrolidin-1-yl]prop-2-en-1-one], the IC50 is 10 to 100 nM and the “TEAD1-Luc MCF7: Max Inhibition” value was “A (A ≥ 75%)”.

For the compound `C=CC(=O)N1CC(/C=C/c2ccc(C(F)(F)F)cc2)C(C)(C)C1` (single isomer, unassigned) [Example 33], the IC50 is 100 to 500 nM and the “TEAD1-Luc MCF7: Max Inhibition” value is given as “A (A ≥ 75%)”.

In the case of `C=CC(=O)N1CC[C@@H](/C=C\c2cccc(C(F)(F)F)c2)C1` (single isomer, unassigned) [Example 41, (S*,Z)-1-(3-(3-(trifluoromethyl)styryl)pyrrolidin-1-yl)prop-2-en-1-one], the IC50 is 10 to 100 nM and the “TEAD1-Luc MCF7: Max Inhibition” value is given as “A (A ≥ 75%)”.

Regarding `C=CC(=O)N1CC[C@H](/C=C\c2cccc(C(F)(F)F)c2)C1` (single isomer, unassigned) [Example 42, (R*,Z)-1-(3-(3-(trifluoromethyl)styryl)pyrrolidin-1-yl)prop-2-en-1-one], the IC50 lay within 100 to 500 nM and the “TEAD1-Luc MCF7: Max Inhibition” value is “A (A ≥ 75%)”.

In the case of `C=CC(=O)N1CC[C@H](/C=C/c2cccc(C(F)(F)F)c2)C1` (single isomer, unassigned) [Example 43, (R*,E)-1-(3-(3-(trifluoromethyl)styryl)pyrrolidin-1-yl)prop-2-en-1-one], the IC50 fell in the range of 100 to 500 nM and the “TEAD1-Luc MCF7: Max Inhibition” value is “B (75% > B ≥ 50%)”.

`C=CC(=O)N1CC[C@@H](/C=C/c2cccc(C(F)(F)F)c2)C1` (single isomer, unassigned) [Example 44, (S*,E)-1-(3-(3-(trifluoromethyl)styryl)pyrrolidin-1-yl)prop-2-en-1-one]: the IC50 is 10 to 100 nM and the “TEAD1-Luc MCF7: Max Inhibition” value is listed as “A (A ≥ 75%)”.

With `C=CC(=O)N1CC[C@H](C#Cc2cccc(C(F)(F)F)c2)C1` (single isomer, unassigned) [Example 56, (R*)-1-(3-((3-(trifluoromethyl)phenyl)ethynyl)pyrrolidin-1-yl)prop-2-en-1-one], the IC50 lay in the range of 10 to 100 nM and the “TEAD1-Luc MCF7: Max Inhibition” value was “A (A ≥ 75%)”.

In the case of `C=CC(=O)N1CC[C@@H](C#Cc2cccc(C(F)(F)F)c2)C1` (single isomer, unassigned) [Example 57, (S*)-1-(3-((3-(trifluoromethyl)phenyl)ethynyl)pyrrolidin-1-yl)prop-2-en-1-one], the IC50 is 10 to 100 nM and the “TEAD1-Luc MCF7: Max Inhibition” value is given as “A (A ≥ 75%)”.

Turning to `C=CC(=O)N1CC[C@@](C#Cc2ccc(C(F)(F)F)cc2)(OC)C1` (single isomer, unassigned) [Example 58, (S*)-1-(3-methoxy-3-((4-(trifluoromethyl)phenyl)ethynyl)pyrrolidin-1-yl)prop-2-en-1-one], the IC50 was at most 10 nM and the “TEAD1-Luc MCF7: Max Inhibition” value is “B (75% > B ≥ 50%)”.

In the case of `C=CC(=O)N1CC[C@](F)(C#Cc2ccc(C(F)(F)F)cc2)C1` (single isomer, unassigned) [Example 62, (S*)-1-(3-fluoro-3-((4-(trifluoromethyl)phenyl)ethynyl)pyrrolidin-1-yl)prop-2-en-1-one], the IC50 lay in the range of 10 to 100 nM and the “TEAD1-Luc MCF7: Max Inhibition” value is given as “B (75% > B ≥ 50%)”.

Turning to `C=CC(=O)N1CC[C@@](F)(C#Cc2ccc(C(F)(F)F)cc2)C1` (single isomer, unassigned) [Example 63, (R*)-1-(3-fluoro-3-((4-(trifluoromethyl)phenyl)ethynyl)pyrrolidin-1-yl)prop-2-en-1-one], the IC50 lay within 10 to 100 nM and the “TEAD1-Luc MCF7: Max Inhibition” value is recorded as “A (A ≥ 75%)”.

As for `C=CC(=O)N1CC[C@](O)(C#Cc2ccc(C(F)(F)F)cc2)C1` (single isomer, unassigned) [Example 64, (S*)-1-(3-hydroxy-3-((4-(trifluoromethyl)phenyl)ethynyl)pyrrolidin-1-yl)prop-2-en-1-one], the IC50 fell in the range of 10 to 100 nM and the “TEAD1-Luc MCF7: Max Inhibition” value is “A (A ≥ 75%)”.

`C=CC(=O)N1CC[C@@](O)(C#Cc2ccc(C(F)(F)F)cc2)C1` (single isomer, unassigned) [Example 65, (R*)-1-(3-hydroxy-3-((4-(trifluoromethyl)phenyl)ethynyl)pyrrolidin-1-yl)prop-2-en-1-one]: the IC50 is 100 to 500 nM and the “TEAD1-Luc MCF7: Max Inhibition” value was “A (A ≥ 75%)”.

Take `C=CC(=O)N1CC[C@H](C#Cc2ccc(C(F)(F)F)cc2)C1` (single isomer, unassigned) [Example 66, (R*)-1-(3-((4-(trifluoromethyl)phenyl)ethynyl)pyrrolidin-1-yl)prop-2-en-1-one]: the IC50 was 10 to 100 nM and the “TEAD1-Luc MCF7: Max Inhibition” value was “A (A ≥ 75%)”.

In the case of `C=C(F)C(=O)N1CC[C@@H](/C=C/c2ccc(C(F)(F)F)cc2)C1` (single isomer, unassigned) [Example 68], the IC50 fell in the range of 100 to 500 nM and the “TEAD1-Luc MCF7: Max Inhibition” value was “B (75% > B ≥ 50%)”.

Regarding `C=C(F)C(=O)N1CC[C@H](/C=C/c2ccc(C(F)(F)F)cc2)C1` (single isomer, unassigned) [Example 69], the IC50 lay in the range of 100 to 500 nM and the “TEAD1-Luc MCF7: Max Inhibition” value is recorded as “B (75% > B ≥ 50%)”.

As for `C=CC(=O)N1C[C@H](Nc2ncccn2)[C@@H](/C=C/c2ccc(C(F)(F)F)cc2)C1` (single isomer, unassigned) [Example 84], the IC50 is 10 to 100 nM and the “TEAD1-Luc MCF7: Max Inhibition” value is reported as “A (A ≥ 75%)”.

`C=CC(=O)N1CCC(/C=C/Cc2ccc(C(F)(F)F)cc2)C1` (single isomer, unassigned) [Example 88, (E)-1-(3-(3-(4-(trifluoromethyl)phenyl)prop-1-en-1-yl)pyrrolidin-1-yl)prop-2-en-1-one]: the IC50 was at most 10 nM and the “TEAD1-Luc MCF7: Max Inhibition” value is “B (75% > B ≥ 50%)”.

For `C=CC(=O)N1CCC(/C=C\Cc2ccc(C(F)(F)F)cc2)C1` (single isomer, unassigned) [Example 89, (Z)-1-(3-(3-(4-(trifluoromethyl)phenyl)prop-1-en-1-yl)pyrrolidin-1-yl)prop-2-en-1-one], the IC50 lay within 10 to 100 nM and the “TEAD1-Luc MCF7: Max Inhibition” value is “A (A ≥ 75%)”.

With `C=CC(=O)N1CCC(/C=C\C(C)(C)c2ccc(C(F)(F)F)cc2)C1` (single isomer, unassigned) [Example 91, (Z)-1-(3-(3-methyl-3-(4-(trifluoromethyl)phenyl)but-1-en-1-yl)pyrrolidin-1-yl)prop-2-en-1-one], the IC50 is over 500 nM and the “TEAD1-Luc MCF7: Max Inhibition” value is on record as “B (75% > B ≥ 50%)”.

Take `C=CC(=O)N1CCC(/C=C/C(C)(C)c2ccc(C(F)(F)F)cc2)C1` (single isomer, unassigned) [Example 92, (E)-1-(3-(3-methyl-3-(4-(trifluoromethyl)phenyl)but-1-en-1-yl)pyrrolidin-1-yl)prop-2-en-1-one]: the IC50 is over 500 nM and the “TEAD1-Luc MCF7: Max Inhibition” value is on record as “B (75% > B ≥ 50%)”.

`C=CC(=O)N1CC[C@@H](/C=C/Cc2ccc(C(F)(F)F)cc2)C1` (single isomer, unassigned) [Example 93]: the IC50 lay in the range of 10 to 100 nM and the “TEAD1-Luc MCF7: Max Inhibition” value is reported as “B (75% > B ≥ 50%)”.

As for `C=CC(=O)N1CC[C@H](/C=C/Cc2ccc(C(F)(F)F)cc2)C1` (single isomer, unassigned) [Example 94], the IC50 fell in the range of 10 to 100 nM and the “TEAD1-Luc MCF7: Max Inhibition” value is reported as “B (75% > B ≥ 50%)”.

Turning to `C=CC(=O)N1CCC2(C=C(c3ccc(C(F)(F)F)cc3)CC2)C1` (single isomer, unassigned) [Example 95, 1-(7-(4-(trifluoromethyl)phenyl)-2-azaspiro[4.4]non-6-en-2-yl)prop-2-en-1-one], the IC50 lay in the range of 100 to 500 nM and the “TEAD1-Luc MCF7: Max Inhibition” value is on record as “B (75% > B ≥ 50%)”.

For `C=CC(=O)N1CCC2(CC=C(c3ccc(C(F)(F)F)cc3)C2)C1` (single isomer, unassigned) [Example 96, 1-(7-(4-(trifluoromethyl)phenyl)-2-azaspiro[4.4]non-7-en-2-yl) prop-2-en-1-one], the IC50 lay within 10 to 100 nM and the “TEAD1-Luc MCF7: Max Inhibition” value is “B (75% > B ≥ 50%)”.

In the case of `C=CC(=O)N1CCC2(C=C(c3ccc(C(F)(F)F)cc3)CO2)C1` (single isomer, unassigned) [Example 97, 1-(3-(4-(trifluoromethyl)phenyl)-1-oxa-7-azaspiro[4.4]non-3-en-7-yl)prop-2-en-1-one], the IC50 lay in the range of 100 to 500 nM and the “TEAD1-Luc MCF7: Max Inhibition” value was “C (50% > C ≥ 2%)”.
